{
  "source": "patent US9296818B2",
  "about": "“Cleavage inhibitors of transforming growth factor beta type I receptor and uses thereof in cancer therapy” (priority 2011, dated 2016)",
  "key": {"A549 cells": {"system": "A549 cells", "assay": "CytoSelect cell invasion assay, A549", "format": "cell-based, human", "description": "(§1) Invasion assays were performed using the CytoSelect Cell Invasion Assay (Cell Biolabs, Inc., San Diego, Calif.). Briefly, the basement membrane layer of the cell culture inserts were rehydrated in 300 μl serum-free RPMI-1640 and 2×10^6 cells were seeded into the upper sections of the chambers in serum-free RPMI-1640 with or without TGFβ. The lower wells of the invasion plates were filled with 500 μl RPMI supplemented with 10% FBS. Non-invasive cells were removed from the upper chamber and invasive cells were stained with crystal violet cell stain solution. Invasive cells were photographed with a Leica DMR light microscope. Colorimetric quantification was performed by transferring inserts into 200 μl of extraction solution for 10 min and then, transferring to a 96-well microtiter plate. The OD at 560 nm was determined with a plate reader (Supplementary Information FIG. S5a).\n(§2) The cancer cell invasion assay described in Example 1 above was performed to examine the ability of γ-secretase inhibitors in suppressing cancel cell invasion. Prostate cancers cells PC-3U, human lung carcinoma cells A549, and human breast carcinoma cells MDA-MB-231 were cultured following routine procedures, treated with TGFβ in the presence of absence of L-685,458, a γ-secretase inhibitor. Cells were visualized by staining with a crystal violet cell staining solution."}, "MDA-MB-231 cells": {"system": "MDA-MB-231 cells", "assay": "CytoSelect cell invasion assay, MDA-MB-231", "format": "cell-based, human", "description": "as §1, §2"}, "PC-3U cells": {"system": "PC-3U cells", "assay": "CytoSelect cell invasion assay, PC-3U", "format": "cell-based, human", "description": "as §1\nas §2, with “solution. […]” for “solution.”"}, "TβRI": {"system": "TβRI", "assay": "Formation of TβRI ICD (immunoblotting of cell lysates)", "format": "cell-based, human", "conditions": "PC-3U cells", "description": "(§3) Protein-G Sepharose was obtained from GE Healthcare.; LumiLight Western blotting substrate and Pefabloc were from Roche, PageRuler prestained protein ladder was from Fermentas; and TAPI-2 was from BIOMOL Research Laboratories Inc. TAPI-2 was used at concentrations of 10-20 μM. The p38α/β inhibitor (SB203580) was purchased from Calbiochem (it was used at a concentration of 10 μM). PKCζ pseudosubstrate was from TOCRIS Bioscience and used at concentrations of 10-50 μM. The PKCζ activator, phorbol 12-myristate 13-acetate (PMA, referred to as TPA in our paper), and a TβRI inhibitor (SB505124) were purchased from Sigma. The SB505124 inhibitor was used at a concentration of 10 μM and the TPA at a concentration of 100 nM. The general PKCζ inhibitor, GF109203X, was purchased from Sigma. All inhibitors were added to cells 1 h before TGFβ stimulation.\n(§4) Cells were starved for 12-18 h and then stimulated with TGFβ for the indicated time periods, washed twice in ice-cold PBS, and lysed in ice-cold lysis buffer (150 mM NaCl, 50 mM Tris pH 8.0, 0.5% (v/v) deoxycholate, 1% (v/v) NP40, 10% (v/v) glycerol, 1 mM aprotinin, 1 mM Pefabloc and 2 mM sodium orthovanadate). After centrifugation, supernatants were collected and protein concentrations were determined using the bicinchoninic acid (BCA) protein measurement kit (Nordic Biolabs). Equal volumes were subjected to immunoprecipitation. […]"}, "TβRI ICD": {"system": "TβRI ICD", "assay": "Nuclear accumulation of TβRI ICD (immunofluorescence, nuclear fractionation)", "format": "cell-based, human", "description": "Before TGF-β1 stimulation, the cells were starved for 12-18 h in medium supplemented with 1% FBS. In all assays, the cells were stimulated with 10 ng/ml TGFβ1 (R&D System, UK).\nas §3\nas §4, with “immunoprecipitation. Equal amounts of protein from total cell lysates and immunoprecipitations were subjected to electrophoresis on 6%, 10%, 12%, or 4-12% gradient SDS-polyacrylamide gels (SDS-PAGE), blotted on to polyvinylidine difluoride membranes, and subjected to immunoblotting, as previously described.^23 The […] cell lysate from Santa Cruz was used as a positive control for TβRI.” for “immunoprecipitation.”"}, "PKCζ": {"biological_target": "T1, PKCζ (Homo sapiens, UniProt Q05513)", "T1 construct": "Cell lysates from PC-3U cells treated with TGFβ or TPA were subjected to immunoblotting with an antiserum against pPKCζ; endogenous in cells; host or cells: PC-3U (human prostate cancer cell line)", "T1 sequence (Q05513 1-592)": "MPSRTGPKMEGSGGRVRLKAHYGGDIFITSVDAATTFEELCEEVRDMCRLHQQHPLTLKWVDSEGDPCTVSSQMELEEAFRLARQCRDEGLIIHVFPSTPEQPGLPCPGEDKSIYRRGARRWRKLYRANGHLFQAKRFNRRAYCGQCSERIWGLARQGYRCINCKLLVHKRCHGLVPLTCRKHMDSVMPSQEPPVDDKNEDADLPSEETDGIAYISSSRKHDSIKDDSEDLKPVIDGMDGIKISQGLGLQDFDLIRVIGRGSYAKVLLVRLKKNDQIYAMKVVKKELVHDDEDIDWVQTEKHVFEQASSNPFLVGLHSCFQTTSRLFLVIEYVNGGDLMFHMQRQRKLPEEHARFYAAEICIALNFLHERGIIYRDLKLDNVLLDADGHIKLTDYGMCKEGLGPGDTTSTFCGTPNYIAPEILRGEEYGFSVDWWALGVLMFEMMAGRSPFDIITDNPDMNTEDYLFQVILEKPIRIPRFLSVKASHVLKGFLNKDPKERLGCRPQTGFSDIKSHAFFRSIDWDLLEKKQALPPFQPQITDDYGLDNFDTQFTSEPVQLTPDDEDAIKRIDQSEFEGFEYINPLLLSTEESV", "assay": "Activation of PKCζ (immunoblotting for p-PKCζ)", "format": "cell-based", "conditions": "PC-3U cells", "description": "Cells were starved for 12-18 h and then stimulated with TGFβ for the indicated time periods, washed twice in ice-cold PBS, and lysed in ice-cold lysis buffer (150 mM NaCl, 50 mM Tris pH 8.0, 0.5% (v/v) deoxycholate, 1% (v/v) NP40, 10% (v/v) glycerol, 1 mM aprotinin, 1 mM Pefabloc and 2 mM sodium orthovanadate). After centrifugation, supernatants were collected and protein concentrations were determined using the bicinchoninic acid (BCA) protein measurement kit (Nordic Biolabs). Equal volumes were subjected to immunoprecipitation. Equal amounts of protein from total cell lysates and immunoprecipitations were subjected to electrophoresis on 6%, 10%, 12%, or 4-12% gradient SDS-polyacrylamide gels (SDS-PAGE), blotted on to polyvinylidine difluoride membranes, and subjected to immunoblotting, as previously described.^23 The […] cell lysate from Santa Cruz was used as a positive control for TβRI. The ubiquitination assays, immunofluorescence assays, and transient transfections were performed as previously described.^5,23,24 Photomicrographs were obtained with a Zeiss 510 Meta (Carl Zeiss Microimaging, Inc.) equipped with a digital camera (RET-EXi-F-M-12-C) from Q-imaging."}},
  "note": "“Also recorded” adds a separate entry of the source.",
  "data": [
    {"compound": "CC(C)C[C@H](NC(=O)[C@H](Cc1ccccc1)C[C@@H](O)[C@H](Cc1ccccc1)NC(=O)OC(C)(C)C)C(=O)N[C@@H](Cc1ccccc1)C(N)=O", "note": "[L-685,458]", "values": [
      {"measurement": "TGFβ-induced cancer cell invasion", "setting": "A549 cells", "result": "significantly suppressed"},
      {"measurement": "TGFβ-induced cancer cell invasion", "setting": "MDA-MB-231 cells", "result": "significantly suppressed"},
      {"measurement": "TGFβ-induced cancer cell invasion", "setting": "PC-3U cells", "result": "significantly suppressed"}
    ]},
    {"compound": "Cc1cccc(-c2[nH]c(C(C)(C)C)nc2-c2ccc3c(c2)OCO3)n1", "note": "[SB505124]", "values": [
      {"measurement": "formation of the TβRI ICD", "setting": "TβRI", "result": "no major effect"}
    ]},
    {"compound": "CC(C)C[C@H](CC(=O)NO)C(=O)N[C@H](C(=O)N[C@@H](C)C(=O)NCCN)C(C)(C)C", "note": "[TAPI-2]", "values": [
      {"measurement": "nuclear translocation/accumulation of TβRI ICD in response to TGFβ stimulation", "setting": "TβRI ICD; PC-3U cells, TGFβ, inhibitor added 1 h before TGFβ, V22 antibody", "result": "reduction; also recorded: partly prevented"}
    ]},
    {"compound": "phorbol 12-myristate 13-acetate [TPA]", "values": [
      {"measurement": "activation of PKCζ (p-PKCζ)", "setting": "PKCζ", "result": "activated"},
      {"measurement": "ICD in the nuclear fraction", "setting": "TβRI ICD; HA-caTβRI-expressing PC-3U cells treated with TPA", "result": "accumulated in the nuclear fraction"},
      {"measurement": "nuclear accumulation of endogenous TβRI ICD, immunofluorescence", "setting": "TβRI ICD; PC-3U cells treated with TPA alone, 6 h", "result": "led to nuclear accumulation"}
    ]}
  ]
}
